Results published in patent publication US10206394B2, “Herbicidal compounds” (Syngenta Participations AG, priority 2014, dated 2019).
Where two headings read alike, the source gives them in different places.

Key:
Assay in all cases: Glasshouse assay for herbicidal activity (pre- and post-emergence), percentage phytotoxicity
Type in all cases: in vivo
[1] = system: Alopecurus myosuroides (ALOMY); conditions: Alopecurus myosuroides
Description: (§1) Test—Glasshouse Assay for Herbicidal Activity
(§2) Seeds of a variety of monocotyledonous and dicotyledonous test plants are sown in standard soil in pots. The plants are cultivated for one day (for pre-emergence (PRE)) or for about 12 days (for post-emergence (POST)) under controlled conditions in a glasshouse (warm climate species at 24/18° C., cool climate species at 20/16° C., both at day/night; 16 hours light; 65% humidity).
(§3) The test plants are then grown on, in a glasshouse (greenhouse) under controlled conditions (warm climate species at 24/18° C., cool climate species at 20/16° C., both at day/night; 16 hours light; 65% humidity) and are watered twice daily. 15 days after application of the test herbicide (15 DAA) (for post-emergence), and 20 days after application of the test herbicide (20 DAA) (for pre-emergence), the test plants are evaluated visually, and an assessed percentage phytotoxicity score is given for each herbicidal application on each plant species (with 100%=total damage to plant; 0%=no damage to plant).
(§4) The plant species tested are as follows: Alopecurus myosuroides (ALOMY), Avena fatua (AVEFA), Lolium perenne (LOLPE), Echinochloa crus-galli (ECHCG).

[2] = system: Echinochloa crus-galli (ECHCG); conditions: Echinochloa crus-galli
Description: as §1, §2, §3, §4

Lolium perenne (LOLPE) = conditions: Lolium perenne
Description: as §1, §2, §3, §4

Avena fatua (AVEFA) = conditions: Avena fatua
Description: as §1, §2, §3, §4

[3] = post-emergence, 360 h, Rate 250 g/ha, post-emergence, assessed visually 15 DAA, 100%=total damage, 0%=no damage, read-out: Post-emergence herbicidal activity (percentage phytotoxicity) ALOMY POST
[4] = post-emergence, 360 h, Rate 250 g/ha, post-emergence, assessed visually 15 DAA, 100%=total damage, 0%=no damage, read-out: Post-emergence herbicidal activity (percentage phytotoxicity) ECHCG POST
[5] = post-emergence, 360 h, Rate 250 g/ha, post-emergence, assessed visually 15 DAA, 100%=total damage, 0%=no damage, read-out: Post-emergence herbicidal activity (percentage phytotoxicity) LOLPE POST
[6] = post-emergence, 360 h, Rate 250 g/ha, post-emergence, assessed visually 15 DAA, 100%=total damage, 0%=no damage, read-out: Post-emergence herbicidal activity (percentage phytotoxicity) AVEFA POST
[7] = post-emergence, 360 h, POST-emergence, rate 250 g/ha, visual score 15 DAA (100%=total damage, 0%=no damage), read-out: Post-emergence herbicidal activity (percentage phytotoxicity) ALOMY POST
[8] = pre-emergence, 480 h, PRE-emergence, rate 250 g/ha, visual score 20 DAA (100%=total damage, 0%=no damage), read-out: Pre-emergence herbicidal activity (percentage phytotoxicity) ALOMY PRE
[9] = post-emergence, 360 h, POST-emergence, rate 250 g/ha, visual score 15 DAA (100%=total damage, 0%=no damage), read-out: Post-emergence herbicidal activity (percentage phytotoxicity) ECHCG POST
[10] = pre-emergence, 480 h, PRE-emergence, rate 250 g/ha, visual score 20 DAA (100%=total damage, 0%=no damage), read-out: Pre-emergence herbicidal activity (percentage phytotoxicity) ECHCG PRE
[11] = post-emergence, 360 h, POST-emergence, rate 250 g/ha, visual score 15 DAA (100%=total damage, 0%=no damage), read-out: Post-emergence herbicidal activity (percentage phytotoxicity) LOLPE POST
[12] = pre-emergence, 480 h, PRE-emergence, rate 250 g/ha, visual score 20 DAA (100%=total damage, 0%=no damage), read-out: Pre-emergence herbicidal activity (percentage phytotoxicity) LOLPE PRE
[13] = post-emergence, 360 h, POST-emergence, rate 250 g/ha, visual score 15 DAA (100%=total damage, 0%=no damage), read-out: Post-emergence herbicidal activity (percentage phytotoxicity) AVEFA POST
[14] = pre-emergence, 480 h, PRE-emergence, rate 250 g/ha, visual score 20 DAA (100%=total damage, 0%=no damage), read-out: Pre-emergence herbicidal activity (percentage phytotoxicity) AVEFA PRE

Compound	pest or weed control at 250 g/ha [1, 3] [%]	pest or weed control at 250 g/ha [2, 4] [%]	pest or weed control at 250 g/ha (Lolium perenne (LOLPE); [5]) [%]	pest or weed control at 250 g/ha (Avena fatua (AVEFA); [6]) [%]	pest or weed control at 250 g/ha [1, 7] [%]	pest or weed control at 250 g/ha [1, 8] [%]	pest or weed control at 250 g/ha [2, 9] [%]	pest or weed control at 250 g/ha [2, 10] [%]	pest or weed control at 250 g/ha (Lolium perenne (LOLPE); [11]) [%]	pest or weed control at 250 g/ha (Lolium perenne (LOLPE); [12]) [%]	pest or weed control at 250 g/ha (Avena fatua (AVEFA); [13]) [%]	pest or weed control at 250 g/ha (Avena fatua (AVEFA); [14]) [%]	pest or weed control at 250 g/ha ([1]; pre-emergence, 480 h, Rate 250 g/ha, pre-emergence, assessed visually 20 DAA, 100%=total damage, 0%=no damage, read-out: Pre-emergence herbicidal activity (percentage phytotoxicity) ALOMY PRE) [%]	pest or weed control at 250 g/ha ([2]; pre-emergence, 480 h, Rate 250 g/ha, pre-emergence, assessed visually 20 DAA, 100%=total damage, 0%=no damage, read-out: Pre-emergence herbicidal activity (percentage phytotoxicity) ECHCG PRE) [%]	pest or weed control at 250 g/ha (Lolium perenne (LOLPE); pre-emergence, 480 h, Rate 250 g/ha, pre-emergence, assessed visually 20 DAA, 100%=total damage, 0%=no damage, read-out: Pre-emergence herbicidal activity (percentage phytotoxicity) LOLPE PRE) [%]	pest or weed control at 250 g/ha (Avena fatua (AVEFA); pre-emergence, 480 h, Rate 250 g/ha, pre-emergence, assessed visually 20 DAA, 100%=total damage, 0%=no damage, read-out: Pre-emergence herbicidal activity (percentage phytotoxicity) AVEFA PRE) [%]
Cc1cc(-c2ncc(Cl)cc2F)cc(C)c1C1C(=O)CC(CC(=O)NCc2cncs2)C1=O (centres unmarked) [Compound A129]	50	90	20	70												
C=C(C)CNC(=O)CC1CC(=O)C(c2c(C)cc(-n3cc(Cl)cn3)cc2C)C1=O (centres unmarked) [Compound B311]					80	80	100	90	70	90	90	80				
CCc1cc(OCC(F)(F)F)cc(C)c1C1C(=O)CC(CC(=O)NCC2CC2)C1=O (centres unmarked) [Compound B219]					100	100	100	90	100	100	100	90				
C/C=C/c1cc(C)c(C2C(=O)CC(CC(=O)NCC3CC3)C2=O)c(CC)c1 (centres unmarked) [Compound B196]					100	100	100	100	100	100	100	80				
Cc1cc(-c2ncc(F)cc2F)cc(C)c1C1C(=O)CC(CC(=O)NC2CC2F)C1=O (centres unmarked) [Compound B289]					100	100	100	100	100	100	100	100				
CCN(C)C(=O)CC1CC(=O)C(c2c(C)cc(OCC(F)(F)F)cc2C)C1=O (centres unmarked) [Compound B211]					90	90	100	100	90		90	80				
C#CCNC(=O)CC1CC(=O)C(c2c(C)cc(-c3ncc(Cl)cc3F)cc2C)C1=O (centres unmarked) [Compound A69]	100	100	100	100									100	100	100	100
Cc1cc(-c2ccc(C#N)cn2)cc(C)c1C1C(=O)CC(CC(=O)NC(C)C)C1=O (centres unmarked) [Compound B320]					100	100	100	100	100	100	100	100				
